Source: article PMC8201479, “Trisubstituted Pyrrolinones as Small-Molecule Inhibitors Disrupting the Protein–RNA Interaction of LIN28 and Let-7” (ACS Medicinal Chemistry Letters, 2021)

How the values were obtained:
[1] = biological target: T1, cold-shock domain of LIN28A (Homo sapiens, UniProt Q9H9Z2); experiment: Fluorescence quenching binding assay
T1 construct: cold shock domain construct LIN28 A (residues 16– 126)
T1 sequence (Q9H9Z2 16-126): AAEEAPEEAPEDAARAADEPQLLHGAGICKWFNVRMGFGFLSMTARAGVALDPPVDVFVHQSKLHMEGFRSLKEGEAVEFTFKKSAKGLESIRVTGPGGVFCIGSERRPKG
Excerpt: Figure S5. Fluorescence quenching assay measuring binding of PH-31 to the cold-shock domain of
(1 picture or pasted object on this page, not shown here)

[2] = biological target: T2, LIN28–let-7 complex (Homo sapiens, UniProt Q9H9Z2); experiment: Electrophoretic mobility shift assay (EMSA); type: binding
T2 construct: Purified LIN28A (residues 16–187) was incubated at a concentration of 200 nM; His-tag (cleaved yes); made in house; host or cells: Escherichia coli BL21(DE3)
T2 sequence (Q9H9Z2 16-187): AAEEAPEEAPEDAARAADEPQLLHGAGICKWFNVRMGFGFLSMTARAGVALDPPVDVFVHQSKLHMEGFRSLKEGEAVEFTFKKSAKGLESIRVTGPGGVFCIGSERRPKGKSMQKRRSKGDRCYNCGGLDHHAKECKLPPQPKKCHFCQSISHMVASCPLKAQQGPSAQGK
Method: was detected after incubation at room temperature using a TECAN Spark plate reader. Half maximal
inhibitory concentrations (IC50) were determined using GraphPad Prism 7.
Compound screening. High throughput screening was performed in low volume 384 well plates
(Corning 4514) with 30 µM compound, 40 nM LIN28A, and 2 nM preE-let-7f-1-FAM in FP assay
buffer. Compounds were transferred with an ECHO 520 liquid handler and protein and RNA were
added with a multidrop dispenser. Protein and RNA were added stepwise with a 30 min incubation
period in between. FP was detected after a final incubation of 15 min with an Envision plate reader
and fluorescence was measured with a Paradigm plate reader. A reaction without LIN28 served as a
negative control and one without compound was used as a positive control. The software Quattro
Workflow (Quattro Research GmbH) was used for the analysis of screening data.
Electrophoretic mobility shift assay. EMSA was used as a secondary assay to validate FP-assay hit
molecules. Purified LIN28A (residues 16–187) was incubated with compound and 5 U recombinant
ribonuclease inhibitor (Takara Bio) in EMSA reaction buffer (50 mM Tris (pH 7.5), 100 mM NaCl,
10 mM β-mercaptoethanol, 50 µM ZnCl2, 2 % DMSO, 0.01 % Tween 20, 12 % glycerol) for 2 hours
at room temperature. Subsequently, preE-let-7f-1-Cy3 (mus musculus) (GGGGUAGUGAUUUUAC
CCUGUUUAGGAGAU-Cy3, purchased from IDT) was added to a final concentration of 5 nM and
a reaction volume of 50 µL. The final concentration of LIN28A was 10 nM and compound
concentrations up to 75 µM were used. The reaction mixtures were incubated for a further 15 minutes
and 10 µL loading dye (40 % glycerol, 1.5x TAE) was added. 10 µL of each reaction was separated
in an 8 % polyacrylamide TAE gel at 4 °C and 220 V for 1 h using 0.25x TAE as running buffer. Cy3
fluorescence was detected with a ChemiDoc M P (Bio-Rad) and 2 minutes of exposure time.
Thermal shift assay. Thermal stability of the cold shock domain construct LIN28 A (residues 16–
126) with and without compound was monitored using a NanoTemper Prometheus NT.48 nano -

[3] = biological target: T3, LIN28–let-7 interaction (Homo sapiens, UniProt Q9H9Z2); experiment: Fluorescence polarization (FP) assay, LIN28A (residues 16–187) and FAM-labeled preE-let-7f-1; type: binding; settings: for FP, Average (mP): raw data Table S3, four replicates
T3 construct: Purified LIN28A (residues 16–187) was incubated at a concentration of 200 nM; His-tag (cleaved yes); made in house; host or cells: Escherichia coli BL21(DE3)
T3 sequence (Q9H9Z2 16-187): T2 sequence (Q9H9Z2 16-187)

Kd [1]: 16.5 ± 2.8 µM
inhibition of the LIN28–let-7 complex in EMSA ([2]; compound concentrations up to 75 µM): dose-dependent micromolar inhibition
IC50 ([2]; relative fluorescence intensity of let-7f divided by that of LIN28–let-7f complex plus let-7f): 38 µM
IC50 ([3]; Table 1, quadruplicate, starting from a maximum concentration of 60 μM, eight concentrations, read-out: IC50, LIN28–let-7 inhibitory activity): 5 µM
FP, Average (mP) ([3]; 0.041 μM compound): 109.25 mP
FP, Average (mP) ([3]; 0.123 μM compound): 110.00 mP
FP, Average (mP) ([3]; 0.368 μM compound): 113.50 mP
FP, Average (mP) ([3]; 1.103 μM compound): 105.75 mP
FP, Average (mP) ([3]; 3.125 μM compound): 75.05 mP
FP, Average (mP) ([3]; 9.375 μM compound): 64.03 mP
FP, Average (mP) ([3]; 29.688 μM compound): 43.05 mP
FP, Average (mP) ([3]; 59.375 μM compound): 38.75 mP
SMILES: O=C(C1=C(O)C(=O)N(c2ccc(O)c(C(=O)O)c2)C1c1ccc(-c2nccs2)cc1)c1ccc(Br)cc1 (stereo not drawn) [C902/PH-31]
